Data reported in US9968602B2, “Modulation of cell fates and activities by phthalazinediones” (Bach Pharma, Inc., priority 2002, dated 2018).

Key:
[1] = tested on: MOMU-LV-Ts1 virus; assay: Movement disorder with paralysis induced by MOMU-LV-Ts1 virus in mice; assay type: in vivo; conditions: daily intraperitoneal injections of 200 μg
Source text: In mice infected at 2 days of age with the Ts1 virus, hind limb paralysis occurs with severe wasting, especially of immune organs. In humans infected with HIV, severe immune deficiency with sensory and motor neuropathy also results. In these wasting syndromes with disordered life and death pathways in various cells, some therapeutic attempts with thiol redox modulators other than amino phthalazinediones have been partially successful (Lynn and Wong, NeuroImmunomodulation 4: 277-284, 1997; Yan et al., FASEB J. 15: 1132-1138, 2001). In these studies, phthalazinediones plus thiol redox modulators appear to be sufficient to maintain survival and an adequate intracellular thiol redox potential in brain and in thymus.
Since maintaining this excessive and imbalanced 4 Hz oscillation requires increased […] expenditures, agents such as amino phthalazinediones, which can modulate thiol redox status, downregulate mitochondrial energy production, and gain access to the overactivated STN neurons, can potentially suppress the 4 Hz overactivity and thereby suppress and modulate the downstream network activities responsible for the symptoms. […] Whether this is due to suppression of oscillatory activity in neurons, suppression of virus-induced astrocytic inflammatory responses, or both is under investigation. […]

[2] = tested on: mitochondrial transmembrane pores; conditions: cited from earlier work
[3] = tested on: ATM-deficient mice; assay: Thymic tumor formation and premature degeneration in ATM-deficient mice; assay type: in vivo; conditions: ATM deficiency
Source text: In regulatory gene-dependent syndromes of premature aging, including ataxia telangiectasia, Down syndrome, trichothiodystrophy, Bloom's disease, p53 over-activity (De Boer et al., Science 296: 1276-1281, 2002; Tyner et al., Nature 415: 45-50, 2002), in which life and death of specific cell types are aberrant, appropriate treatments in vitro and in vivo with thiol redox modulators have been partially successful.
Other thiol redox modulators, such as N-acetyl cysteine and dehydrolipoic acid, also delay the premature degeneration of cells and the thymomas. Thiol redox modulators also correct the delayed differentiation and excessive production of DNA in ATM-deficient lymphoid cells (Yan et al., FASEB J. 15: 1132-1138, 2001; Lynn et al., unpublished). However, in the ATM-deficient mice, treatment was fully successful only if the thiol redox modulators were applied early, before two weeks of age and before tumor development.
Whether amino phthalazinediones with other thiol redox modulators, which suppress growth of non-transformed ATM-deficient cells in vitro, can fully suppress tumors in vivo, without toxicity, has not been rigorously evaluated. Cross-linking redox modulators such as diamide, menadione, and oxidized phthalazines are known to stop cell growth, activate caspases, and initiate apoptosis in some tumor cells (Pias and Aw, FASEB J. 16: 781-790, 2002).

| Compound | premature degeneration of cells and the thymomas [3] | other results |
| --- | --- | --- |
| Nc1cccc2c([O-])n[nH]c(=O)c12.[Na+] [4-sodium amino phthalazinedione] | – | progress of the movement disorder with paralysis [1]: significantly delay |
| CN(C)C(=O)/N=N/C(=O)N(C)C [Diamide] | – | opening of mitochondrial transmembrane pores [2]: completely opens mitochondrial transmembrane pores |
| O=C(O)CCCC[C@@H](S)CCS [dehydrolipoic acid] | delay | – |
| CC(=O)N[C@@H](CS)C(=O)O [N-acetyl cysteine] | delay | – |
